± gives the expanded uncertainty stated by the source.
Assays:
[1] = Crystal; DSC
[2] = Molar enthalpy of transition or fusion; details: Crystal; DSC

For `Cc1ccc2cc(C)ccc2c1` [2,6-dimethylnaphthalene], which Triple point temperature [1] is on record?
The Triple point temperature was 384.41 ± 1.2 K.

What about the “Molar enthalpy of transition or fusion” value [2] of the same compound?
Its value is 5.95 ± 0.136 kcal/mol.
